# From patent EP4745118A1, “HYDROXAMIC ACID COMPOUND OR PHARMACEUTICALLY ACCEPTABLE SALT THEREOF, AND USE THEREOF AND PREPARATION METHOD THEREFOR” (priority 2023, dated 2025)
# Read-outs that look alike come from different tables or passages of the source.
# Assays:
# Test in all cases: In vitro antibacterial activity, agar dilution method (MIC)
# Format in all cases: cell-based
# [1] = tested on: Citrobacter freundii; details: ATCC43864; Citrobacter freundii ATCC 43864; agar dilution, 35°C, 18 hours; read-out: MIC
# Method: (§1) According to the relevant operating procedures of the Clinical Laboratory Standards Institute (CLSI) in the United States, an antimicrobial susceptibility testing was conducted using the agar dilution method. […]. The agar was allowed to solidify and set aside for later use.
# (§2) The test bacteria were propagated in broth and adjusted to a turbidity of 0.5 McFarland (approximately 1-2 × 10^8 CFU/mL) using a turbidimeter before inoculation. The 0.5 McFarland bacterial solution was then diluted 10-fold in broth (approximately 1-2 × 10^7 CFU/mL). A multipoint inoculator was used to inoculate the above bacterial solution onto a series of plates containing different concentrations of drugs (with an inoculation amount of approximately 10^4 CFU per inoculation site). After incubation at a constant temperature of 35°C for 18 hours, results were observed. The minimum concentration of drugs contained in sterile growth plates was determined as the Minimal Inhibitory Concentration (MIC).
# [2] = tested on: Enterobacter aerogenes; details: Klebsiella aerogenes, ATCC13048; Enterobacter aerogenes ATCC 13048; agar dilution, 35°C, 18 hours; read-out: MIC
# Method: as §1, §2
# [3] = tested on: Escherichia coli; details: Escherichia coli, agar dilution, 35°C
# Method: as §1, §2
# [4] = tested on: Klebsiella pneumoniae; details: Klebsiella pneumoniae, agar dilution, 35°C, 18 hours
# Method: as §1, §2
# [5] = tested on: Pantoea agglomerans; details: ATCC27993; Pantoea agglomerans ATCC 27993; agar dilution, 35°C, 18 hours; read-out: MIC
# Method: as §1, §2
# [6] = tested on: Proteus mirabilis; details: ATCC49565; Proteus mirabilis ATCC 49565; agar dilution, 35°C, 18 hours; read-out: MIC
# Method: as §1, §2
# [7] = tested on: Proteus vulgaris; details: ATCC29905; Proteus vulgaris ATCC 29905; agar dilution, 35°C, 18 hours; read-out: MIC
# Method: as §1, §2
# [8] = tested on: Pseudomonas aeruginosa; details: Pseudomonas aeruginosa PAO1; agar dilution, 35°C, 18 hours; read-out: MIC
# Method: as §1, §2
# [9] = tested on: Serratia marcescens; details: ATCC21074; Serratia marcescens ATCC 21074; agar dilution, 35°C, 18 hours; read-out: MIC
# Method: as §1, §2
# [10] = tested on: Enterobacter cloacae; details: Enterobacter cloacae CDC1000654 (NDM-1-producing); agar dilution, 35°C, 18 hours; read-out: MIC
# Method: According to the relevant operating procedures of the Clinical Laboratory Standards Institute (CLSI) in the United States, an antimicrobial susceptibility testing was conducted using the agar dilution method. […] The agar was allowed to solidify and set aside for later use.
# as §2
# [11] = tested on: Shigella flexneri; details: ATCC12022, Shigella flexneri ATCC 12022, 35°C, 18 hours, read-out: MIC
# Method: According to the relevant operating procedures of the Clinical Laboratory Standards Institute (CLSI) in the United States, an antimicrobial susceptibility testing was conducted using the agar dilution method. A 1920 µg/mL stock solution was serially diluted twofold with sterile water to obtain dilutions of 960, 480, 240, 120, 60, 30, 15, 7.5, 3.75, 1.88, 0.94, 0.47 µg/mL, and 1 mL of the dilution was taken respectively from the dilutions with different concentrations and added to a Petri dish, to which 14 mL of melted MH agar medium was added and mixed thoroughly, and the final concentration of the drug in the petri dish is 128, 64, 32, 16, 8, 4, 2, 1, 0.5, 0.25, 0.12, 0.06, and 0.03 µ g/mL, respectively. The agar was allowed to solidify and set aside for later use.
# as §2
# [12] = 18 h, Escherichia coli 13-43 (mcr-1), 18 hours, read-out: MIC
# [13] = 18 h, Escherichia coli 17-R28 (CRE, NDM-1-producing), 18 hours, read-out: MIC
# [14] = ATCC2469, 18 h, Escherichia coli ATCC 2469 (CRE, NDM-1-producing), 18 hours, read-out: MIC
# [15] = ATCC35218, 18 h, Escherichia coli ATCC 35218 (ESBLs-producing), 18 hours, read-out: MIC
# [16] = 18 h, Klebsiella pneumoniae 09-20 (mcr-1), read-out: MIC
# [17] = 18 h, Klebsiella pneumoniae 17-R27 (CRE), read-out: MIC
# [18] = 18 h, Klebsiella pneumoniae 18-8 (ESBLs-producing), read-out: MIC
# [19] = ATCC700603, 18 h, Klebsiella pneumoniae ATCC 700603 (ESBLs-producing), read-out: MIC
# [20] = ATCCBAA2146, 18 h, Klebsiella pneumoniae ATCC BAA-2146 (CRE, NDM-1-producing), read-out: MIC
# [21] = ATCCBAA2146, 18 h, Klebsiella pneumoniae ATCC BAA-2146 (CRE, NDM-1-producing)
Structure (SMILES),MIC [1],MIC [2],"MIC [3, 12]","MIC [3, 13]","MIC [3, 14]","MIC [3, 15]","MIC [4, 16]","MIC [4, 17]","MIC [4, 18]","MIC [4, 19]","MIC [4, 20]",MIC [5],MIC [6],MIC [7],MIC [8],MIC [9],MIC [10],MIC [11],"MIC [4, 21]","MIC ([3]; 18 h, Escherichia coli 17-R28 (CRE, NDM-1-producing))"
NCC[C@H](O)C(=O)N[C@@H]1C[C@H](N)[C@@H](O[C@H]2O[C@H](CN)[C@@H](O)[C@H](O)[C@H]2O)[C@H](O)[C@H]1O[C@H]1O[C@H](CO)[C@@H](O)[C@H](N)[C@H]1O [Amikacin],2 µg/mL,1 µg/mL,4 µg/mL,> 128 µg/mL,> 128 µg/mL,4 µg/mL,> 128 µg/mL,2 µg/mL,1 µg/mL,1 µg/mL,> 128 µg/mL,2 µg/mL,2 µg/mL,1 µg/mL,2 µg/mL,2 µg/mL,> 128 µg/mL,4 µg/mL,–,–
C[C@H]1[C@H](NC(=O)/C(=N\OC(C)(C)C(=O)O)c2csc(N)n2)C(=O)N1S(=O)(=O)O [Aztreonam],0.12 µg/mL,0.12 µg/mL,16 µg/mL,8 µg/mL,4 µg/mL,≤ 0.03 µg/mL,0.25 µg/mL,0.25 µg/mL,1 µg/mL,16 µg/mL,–,≤ 0.03 µg/mL,≤ 0.03 µg/mL,≤ 0.03 µg/mL,4 µg/mL,0.12 µg/mL,–,0.06 µg/mL,> 128 µg/mL,–
CO/N=C(\C(=O)N[C@@H]1C(=O)N2C(C(=O)[O-])=C(C[N+]3(C)CCCC3)CS[C@H]12)c1csc(N)n1 [Cefepime],≤ 0.03 µg/mL,0.06 µg/mL,2 µg/mL,–,64 µg/mL,≤ 0.03 µg/mL,1 µg/mL,0.5 µg/mL,1 µg/mL,1 µg/mL,–,0.06 µg/mL,0.06 µg/mL,≤ 0.03 µg/mL,2 µg/mL,0.06 µg/mL,–,≤ 0.03 µg/mL,128 µg/mL,> 128 µg/mL
COCC1CC1C#CC#Cc1ccc(C(=O)N[C@H](C(=O)NO)C(C)(C)N)cc1 (stereo partly drawn) [Formula I],0.5 µg/mL,2 µg/mL,0.5 µg/mL,0.5 µg/mL,0.5 µg/mL,0.5 µg/mL,2 µg/mL,2 µg/mL,–,4 µg/mL,8 µg/mL,4 µg/mL,2 µg/mL,0.5 µg/mL,2 µg/mL,0.5 µg/mL,4 µg/mL,0.25 µg/mL,–,–
